Test results taken from ChEMBL document CHEMBL5346892, “Design and synthesis of benzochromene derivatives as AcrB inhibitors for the reversal of bacterial multidrug resistance” (Eur J Med Chem, 2023).
The source made the active and inactive calls. The rule behind the calls is not given here.

Experiments:
Cell membrane = test: Induction of inner membrane permeabilization in Escherichia coli BW25113 assessed as increase in fluorescence intensity at 64 microg/ml incubated for 10 mins by DiOC2 dye based fluorimeter analysis; format: subcellular; settings: dose 64.0 µg/ml
Escherichia coli [1] = test: Synergistic antibacterial activity against wild type Escherichia coli BW25113 assessed as minocycline MIC at 8 microg/ml incubated for 18 hrs by broth dilution assay; format: functional; settings: dose 8 µg/ml
[2] = Hemolytic activity in mouse RBC assessed as hemolysis at 4 to 256 microg/ml incubated for 1 hr by microplate reader analysis; format: toxicity, cell-based, Erythrocyte; settings: mouse red blood cells (erythrocytes), at 4 to 256 µg/mL, dose 4-256 µg/ml, read-out: Activity
Escherichia coli [3] = test: Synergistic antibacterial activity against wild type Escherichia coli BW25113 assessed as fold decrease in erythromycin MIC at 128 microg/ml incubated for 18 hrs by checkboard based microplate reader analysis; format: functional; settings: dose 128 µg/ml
Escherichia coli [4] = test: Synergistic antibacterial activity against wild type Escherichia coli BW25113 assessed as levofloxacin MIC at 64 microg/ml incubated for 18 hrs by broth dilution assay; format: functional; settings: dose 64 µg/ml
Escherichia coli [5] = test: Synergistic antibacterial activity against wild type Escherichia coli BW25113 assessed as minocycline MIC at 128 microg/ml incubated for 18 hrs by broth dilution assay; format: functional; settings: dose 128 µg/ml
Escherichia coli [6] = test: Synergistic antibacterial activity against wild type Escherichia coli BW25113 assessed as erythromycin MIC at 128 microg/ml incubated for 18 hrs in presence of colistin by broth dilution assay; format: functional; settings: dose 128 µg/ml
Escherichia coli [7] = test: Synergistic antibacterial activity against wild type Escherichia coli BW25113 assessed as levofloxacin MIC at 128 microg/ml incubated for 18 hrs in presence of colistin by broth dilution assay; format: functional; settings: dose 128 µg/ml
Escherichia coli [8] = test: Synergistic antibacterial activity against wild type Escherichia coli BW25113 assessed as erythromycin MIC at 32 microg/ml incubated for 18 hrs by broth dilution assay; format: functional; settings: dose 32 µg/ml
Escherichia coli [9] = test: Synergistic antibacterial activity against wild type Escherichia coli BW25113 assessed as levofloxacin MIC at 4 microg/ml incubated for 18 hrs in presence of colistin by broth dilution assay; format: functional; settings: dose 4 µg/ml
Escherichia coli [10] = test: Synergistic antibacterial activity against wild type Escherichia coli BW25113 assessed as minocycline MIC at 4 microg/ml incubated for 18 hrs in presence of colistin by broth dilution assay; format: functional; settings: dose 4 µg/ml
Escherichia coli [11] = test: Synergistic antibacterial activity against wild type Escherichia coli BW25113 assessed as fold decrease in erythromycin MIC at 16 to 64 microg/ml incubated for 18 hrs by checkboard based microplate reader analysis; format: functional; settings: dose 16-64 µg/ml
Escherichia coli [12] = test: Synergistic antibacterial activity against wild type Escherichia coli BW25113 assessed as fold decrease in levofloxacin MIC at 64 microg/ml incubated for 18 hrs by checkboard based microplate reader analysis; format: functional; settings: dose 64 µg/ml
Escherichia coli [13] = test: Synergistic antibacterial activity against wild type Escherichia coli BW25113 assessed as fold decrease in erythromycin MIC at 8 microg/ml incubated for 18 hrs by checkboard based microplate reader analysis; format: functional; settings: dose 8 µg/ml
[14] = target: T1, Multidrug efflux pump subunit AcrB (Escherichia coli (strain K12)) (UniProt P31224); test: Inhibition of Escherichia coli BW25113 AcrB assessed as inhibition of nile red efflux at 200 uM incubated for 15 mins
T1 sequence (whole entry): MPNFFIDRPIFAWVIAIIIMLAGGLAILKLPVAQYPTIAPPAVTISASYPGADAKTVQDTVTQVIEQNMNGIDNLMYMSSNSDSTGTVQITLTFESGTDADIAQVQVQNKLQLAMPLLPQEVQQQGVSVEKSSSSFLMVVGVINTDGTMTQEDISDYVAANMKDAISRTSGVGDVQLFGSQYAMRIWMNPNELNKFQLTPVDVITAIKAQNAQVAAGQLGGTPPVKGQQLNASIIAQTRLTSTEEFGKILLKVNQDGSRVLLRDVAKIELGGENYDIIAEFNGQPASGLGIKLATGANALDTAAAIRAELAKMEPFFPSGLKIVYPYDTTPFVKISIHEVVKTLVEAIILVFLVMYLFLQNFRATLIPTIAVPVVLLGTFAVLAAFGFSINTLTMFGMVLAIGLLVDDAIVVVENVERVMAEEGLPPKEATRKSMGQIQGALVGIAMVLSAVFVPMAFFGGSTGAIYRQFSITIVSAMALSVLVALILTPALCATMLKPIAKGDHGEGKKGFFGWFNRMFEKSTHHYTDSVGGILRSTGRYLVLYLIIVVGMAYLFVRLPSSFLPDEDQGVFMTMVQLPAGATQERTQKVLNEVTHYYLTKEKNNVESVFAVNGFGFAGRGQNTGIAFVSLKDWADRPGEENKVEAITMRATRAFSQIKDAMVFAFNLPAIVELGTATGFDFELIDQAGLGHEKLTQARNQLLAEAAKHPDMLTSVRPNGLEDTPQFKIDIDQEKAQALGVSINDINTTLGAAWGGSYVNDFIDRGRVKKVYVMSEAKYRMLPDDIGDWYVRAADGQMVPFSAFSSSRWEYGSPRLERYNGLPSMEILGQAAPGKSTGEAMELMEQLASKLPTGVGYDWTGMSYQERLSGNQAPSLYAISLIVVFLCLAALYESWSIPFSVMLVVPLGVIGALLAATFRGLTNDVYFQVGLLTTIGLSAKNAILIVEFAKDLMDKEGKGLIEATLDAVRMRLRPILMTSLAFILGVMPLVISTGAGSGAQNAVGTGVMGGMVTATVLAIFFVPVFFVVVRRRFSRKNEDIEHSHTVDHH

[15] = target: T1, Multidrug efflux pump subunit AcrB (Escherichia coli (strain K12)); test: Inhibition of Escherichia coli BW25113 AcrB assessed as inhibition of nile red efflux at 100 uM incubated for 15 mins
Escherichia coli [16] = test: Synergistic antibacterial activity against wild type Escherichia coli BW25113 assessed as fold decrease in erythromycin MIC at 8 to 128 microg/ml incubated for 18 hrs by checkboard based microplate reader analysis; format: functional; settings: dose 8-128 µg/ml
Escherichia coli [17] = test: Synergistic antibacterial activity against wild type Escherichia coli BW25113 assessed as levofloxacin MIC at 1 microg/ml incubated for 18 hrs in presence of colistin by broth dilution assay; format: functional; settings: dose 1 µg/ml
Escherichia coli [18] = test: Synergistic antibacterial activity against wild type Escherichia coli BW25113 assessed as erythromycin MIC at 0.5 microg/ml incubated for 18 hrs in presence of colistin by broth dilution assay; format: functional; settings: dose 0.5 µg/ml
Escherichia coli [19] = test: Synergistic antibacterial activity against wild type Escherichia coli BW25113 assessed as levofloxacin MIC at 2 microg/ml incubated for 18 hrs in presence of colistin by broth dilution assay; format: functional; settings: dose 2 µg/ml
Escherichia coli [20] = test: Synergistic antibacterial activity against wild type Escherichia coli BW25113 assessed as levofloxacin MIC at 0.5 microg/ml incubated for 18 hrs in presence of colistin by broth dilution assay; format: functional; settings: dose 0.5 µg/ml
Escherichia coli [21] = test: Synergistic antibacterial activity against wild type Escherichia coli BW25113 assessed as erythromycin MIC at 2 microg/ml incubated for 18 hrs in presence of colistin by broth dilution assay; format: functional; settings: dose 2 µg/ml
Escherichia coli [22] = test: Synergistic antibacterial activity against wild type Escherichia coli BW25113 assessed as erythromycin MIC at 1 microg/ml incubated for 18 hrs in presence of colistin by broth dilution assay; format: functional; settings: dose 1 µg/ml

SMILES | Activity (Cell membrane) | MIC (Escherichia coli [1]) [mg/L] | hemolysis at 1 h [2] [%] | fold change (FC) (Escherichia coli [3]) | MIC (Escherichia coli [4]) [mg/L] | MIC (Escherichia coli [5]) [mg/L] | MIC (Escherichia coli [8]) [mg/L] | MIC (Escherichia coli [9]) [mg/L] | MIC (Escherichia coli [10]) [mg/L] | other results
COc1ccc(OCCCOc2cccc3c4c(c(C(=O)N5CCOCC5)cc23)CCC(C)(C)O4)cc1 | inactive | 2 | < 5 | 8 | 0.032 | 1 | 32 | – | – | MIC (Escherichia coli [6]): 8 mg/L; MIC (Escherichia coli [7]): 0.032 mg/L
CC1(C)CCc2c(C(=O)N3CCOCC3)cc3c(OCCCOc4cccc(C(=O)O)c4)cccc3c2O1 | – | – | < 5 | – | 0.016 | 0.5 | 32 | 0.032 | 0.5 | fold change (FC) (Escherichia coli [11]): 4; fold change (FC) (Escherichia coli [12]): 4
CC1(C)CCc2c(C(=O)N3CCOCC3)cc3c(OCCSc4ccc([N+](=O)[O-])cc4)cccc3c2O1 | inactive | 2 | < 5 | – | 0.016 | 2 | 16 | 0.032 | 1 | fold change (FC) (Escherichia coli [13]): 4; inhibition [14]: 100%; inhibition [15]: 100%
CC1(C)CCc2c(C(=O)N3CCOCC3)cc3c(OCCN4CCN(c5ccccc5)CC4)cccc3c2O1 | inactive | 2 | < 5 | 4 | 0.016 | 1 | 32 | – | – | fold change (FC) (Escherichia coli [16]): 16; MIC (Escherichia coli [17]): 0.032 mg/L; MIC (Escherichia coli [18]): 16 mg/L; MIC (Escherichia coli [19]): 0.032 mg/L; MIC (Escherichia coli [20]): 0.032 mg/L; MIC (Escherichia coli [21]): 8 mg/L; MIC (Escherichia coli [22]): 16 mg/L
